Like-named read-outs stand apart in the source and are kept apart here.
System: Bacteriophage MS2
Assay type: cell-based
Conditions: for LOG Reduction: plasma coating of precursor on Tyvek substrate, (LOD) = limit of detection

C=CC(=O)NCCC[N+](C)(C)C.[Cl-] [APTAC, (3-Acrylamidopropyl)trimethylammonium chloride]
LOG Reduction: 2.1 log

CCCCCCCCCCCCCCCCCC[N+](C)(C)CCC[Si](OC)(OC)OC.[Cl-] [SiQAM, Dimethyloctadecyl[3-(trimethoxysilyl)propyl] ammonium chloride]
LOG Reduction: 1.56 log

Benzalkonium chloride [reference compound]
LOG Reduction: >3.8 (LOD) log

Citric Acid
Avg. MS2 (log red) (Filter media sample, 6 passes): 2.15 log red
MS2 neutralized (%) (Filter media sample, 6 passes): 99.29%
Avg. MS2 (log red) (Filter media sample, 10 passes): 2.72 log red
MS2 neutralized (%) (Filter media sample, 10 passes): 99.81%
Avg. MS2 (log red) (Filter media sample, 20 passes): 2.46 log red
MS2 neutralized (%) (Filter media sample, 20 passes): 99.65%
Avg. MS2 (log red) (Outer wave sample, 6 passes): 2.13 log red
MS2 neutralized (%) (Outer wave sample, 6 passes): 99.26%
Avg. MS2 (log red) (Outer wave sample, 10 passes): 1.96 log red
MS2 neutralized (%) (Outer wave sample, 10 passes): 98.90%
Avg. MS2 (log red) (Outer wave sample, 20 passes): 2.71 log red
MS2 neutralized (%) (Outer wave sample, 20 passes): 99.81%
LOG Reduction: >5.0 (LOD) log

From patent publication US20240269337A1, “METHOD AND SYSTEM FOR COATING FILTER MEDIA” (MOLECULAR PLASMA GROUP SA, priority 2021, published 2024)
